{
  "source": "patent US7326288B2",
  "about": "“Trisazo compound, ink composition, and colored object” (Nippon Kayaku Kabushiki Kaisha, priority 2003, dated 2008)",
  "key": {"[1]": {"assay": "solubility in water of the isolated trisazo compound", "assay_type": "physicochemical"}, "[2]": {"assay": "Solubility Test (ammonia alkalinity, spot on filter paper)", "assay_type": "physicochemical", "details": "aqueous buffer, thermodynamic from solid", "method": "Using ion exchanged water for a water, pH was adjusted at 9 to 9.5 with aqueous ammonia. They were treated with ultrasonic vessel at ordinary temperature. Toyo Filter Paper No. 131 was spotted with them, surface of which after dried was observed and solubility of which was determined. When a spot was uniform and insoluble material were not observed, it was judged to be soluble. When a spot was ununiform and insoluble material were observed, it was judged to be not soluble."}},
  "data": [
    {"smiles": "Nc1c(N=Nc2ccc3c(O)c(N=Nc4cc(C(=O)O)ccc4C(=O)O)c(S(=O)(=O)O)cc3c2S(=O)(=O)O)cc(S(=O)(=O)O)c2cc(S(=O)(=O)O)c(N=Nc3ccc([N+](=O)[O-])cc3S(=O)(=O)O)c(O)c12", "note": "[compound 3]", "values": [
      {"measurement": "solubility", "setting": "[1]", "value": "≥ 100", "unit": "mg/mL"}
    ]},
    {"smiles": "Nc1c(N=Nc2ccc3c(O)c(N=Nc4cc(S(=O)(=O)O)ccc4S(=O)(=O)O)c(S(=O)(=O)O)cc3c2S(=O)(=O)O)cc(S(=O)(=O)O)c2cc(S(=O)(=O)O)c(N=Nc3ccc([N+](=O)[O-])cc3S(=O)(=O)O)c(O)c12", "note": "[Formula (2-10)]", "values": [
      {"measurement": "solubility", "setting": "[2]", "value": "≥ 120", "unit": "mg/mL"}
    ]},
    {"smiles": "Nc1c(N=Nc2ccc3c(O)c(N=Nc4ccc([N+](=O)[O-])cc4S(=O)(=O)O)c(S(=O)(=O)O)cc3c2S(=O)(=O)O)cc(S(=O)(=O)O)c2cc(S(=O)(=O)O)c(N=Nc3ccc([N+](=O)[O-])cc3S(=O)(=O)O)c(O)c12", "note": "[compound 5]", "values": [
      {"measurement": "solubility", "setting": "[1]", "value": "≥ 100", "unit": "mg/mL"}
    ]},
    {"smiles": "CNS(=O)(=O)c1ccc(N=Nc2c(S(=O)(=O)O)cc3c(S(=O)(=O)O)c(N=Nc4cc(S(=O)(=O)O)c5cc(S(=O)(=O)O)c(N=Nc6ccc([N+](=O)[O-])cc6S(=O)(=O)O)c(O)c5c4N)ccc3c2O)c(C(=O)O)c1", "note": "[compound 9]", "values": [
      {"measurement": "solubility", "setting": "[1]", "value": "≥ 100", "unit": "mg/mL"}
    ]},
    {"smiles": "COc1ccc(N=Nc2c(S(=O)(=O)O)cc3c(S(=O)(=O)O)c(N=Nc4cc(S(=O)(=O)O)c5cc(S(=O)(=O)O)c(N=Nc6ccc([N+](=O)[O-])cc6S(=O)(=O)O)c(O)c5c4N)ccc3c2O)c(S(=O)(=O)O)c1", "note": "[compound 1]", "values": [
      {"measurement": "solubility", "setting": "[1]", "value": "≥ 100", "unit": "mg/mL"}
    ]},
    {"smiles": "Nc1c(N=Nc2ccc3c(O)c(N=Nc4cc(C(=O)O)cc(C(=O)O)c4)c(S(=O)(=O)O)cc3c2S(=O)(=O)O)cc(S(=O)(=O)O)c2cc(S(=O)(=O)O)c(N=Nc3ccc([N+](=O)[O-])cc3S(=O)(=O)O)c(O)c12", "note": "[compound 24]", "values": [
      {"measurement": "solubility", "setting": "[1]", "value": "≥ 100", "unit": "mg/mL"}
    ]},
    {"smiles": "Nc1c(N=Nc2ccc3c(O)c(N=Nc4ccc(S(N)(=O)=O)cc4C(=O)O)c(S(=O)(=O)O)cc3c2S(=O)(=O)O)cc(S(=O)(=O)O)c2cc(S(=O)(=O)O)c(N=Nc3ccc([N+](=O)[O-])cc3S(=O)(=O)O)c(O)c12", "note": "[compound 4]", "values": [
      {"measurement": "solubility", "setting": "[1]", "value": "≥ 100", "unit": "mg/mL"}
    ]},
    {"smiles": "Nc1c(N=Nc2ccc3c(O)c(N=Nc4cc(S(=O)(=O)O)c5cc([N+](=O)[O-])cc(S(=O)(=O)O)c5c4)c(S(=O)(=O)O)cc3c2S(=O)(=O)O)cc(S(=O)(=O)O)c2cc(S(=O)(=O)O)c(N=Nc3ccc([N+](=O)[O-])cc3S(=O)(=O)O)c(O)c12", "note": "[compound 20]", "values": [
      {"measurement": "solubility", "setting": "[1]", "value": "≥ 100", "unit": "mg/mL"}
    ]},
    {"smiles": "Nc1c(N=Nc2ccc3c(O)c(N=Nc4cc(C(=O)O)cc(C(=O)O)c4)c(S(=O)(=O)O)cc3c2S(=O)(=O)O)cc(S(=O)(=O)O)c2cc(S(=O)(=O)O)c(N=Nc3ccc(S(=O)(=O)O)cc3[N+](=O)[O-])c(O)c12", "note": "[compound 26]", "values": [
      {"measurement": "solubility", "setting": "[1]", "value": "≥ 100", "unit": "mg/mL"}
    ]},
    {"smiles": "Nc1c(N=Nc2ccc3c(O)c(N=Nc4ccc(S(=O)(=O)O)cc4C(=O)O)c(S(=O)(=O)O)cc3c2S(=O)(=O)O)cc(S(=O)(=O)O)c2cc(S(=O)(=O)O)c(N=Nc3ccc([N+](=O)[O-])cc3S(=O)(=O)O)c(O)c12", "note": "[compound 2]", "values": [
      {"measurement": "solubility", "setting": "[1]", "value": "≥ 100", "unit": "mg/mL"}
    ]}
  ]
}
